According to ChEMBL document CHEMBL5608113, “Targeting of CAF-induced therapy resistance in CRC organoid-stroma co-cultures” (2024):

Experiments:
Assay type in all cases: functional, Homo sapiens
Conditions in all cases: Homo sapiens, Concentration 10 uM; read-out: Cell Viability
Colon cancer organoid [1] = assay: Targeting of F14 CAF-induced therapy resistance in O23 CRC organoid-stroma co-culture. Cell viability is reported with Gefitinib.
Colon cancer organoid [2] = assay: Targeting of F14 CAF-induced therapy resistance in O14 CRC organoid-stroma co-culture. Cell viability is reported without Gefitinib.
Colon cancer organoid [3] = assay: Targeting of F14 CAF-induced therapy resistance in O14 CRC organoid-stroma co-culture. Cell viability is reported with Gefitinib.
Colon cancer organoid [4] = assay: Targeting of F14 CAF-induced therapy resistance in O23 CRC organoid-stroma co-culture. Cell viability is reported without Gefitinib.
Colon cancer organoid [5] = assay: Targeting of F14 CAF-induced therapy resistance in O23 CRC organoid-stroma co-culture. Cell viability is reported with SN-38.

## Cc1c(NC(=O)c2ccc(C(C)(C)C)cc2)cccc1-c1cn(C)c(=O)c(Nc2ccc(C(=O)N3CCOCC3)cc2)n1
Colon cancer organoid [1]
  viability at 10 µM: 54%
Colon cancer organoid [2]
  viability at 10 µM: 82.5%
Colon cancer organoid [3]
  viability at 10 µM: 23.8%
Colon cancer organoid [4]
  viability at 10 µM: 56.1%
Colon cancer organoid [5]
  viability at 10 µM: 56.9%

## COc1cc(Nc2nccc(-c3cnn4nc(OC)ccc34)n2)cc(C(F)(F)F)c1
Colon cancer organoid [1]
  viability at 10 µM: 19.5%
Colon cancer organoid [2]
  viability at 10 µM: 3.97%
Colon cancer organoid [3]
  viability at 10 µM: 3.12%
Colon cancer organoid [4]
  viability at 10 µM: 53.3%
Colon cancer organoid [5]
  viability at 10 µM: 23.6%

## O=C(O)CNC(=O)c1c(O)c2ccccc2n(Cc2ccccc2)c1=O
Colon cancer organoid [1]
  viability at 10 µM: 67.5%
Colon cancer organoid [2]
  viability at 10 µM: 103%
Colon cancer organoid [3]
  viability at 10 µM: 80.4%
Colon cancer organoid [4]
  viability at 10 µM: 167%
Colon cancer organoid [5]
  viability at 10 µM: 95.1%

## CCN(C(=O)CO)[C@H]1CN(/C(=N\C#N)Nc2cccc(OC(F)F)c2)N=C1c1ccc(Cl)c(Cl)c1
Colon cancer organoid [1]
  viability at 10 µM: 54.9%
Colon cancer organoid [2]
  viability at 10 µM: 125%
Colon cancer organoid [3]
  viability at 10 µM: 62.2%
Colon cancer organoid [4]
  viability at 10 µM: 84%
Colon cancer organoid [5]
  viability at 10 µM: 115%

## CCc1cc2cc(NS(=O)(=O)c3ccc(C#N)cc3)ccc2n(CC)c1=O
Colon cancer organoid [1]
  viability at 10 µM: 73.6%
Colon cancer organoid [2]
  viability at 10 µM: 106%
Colon cancer organoid [3]
  viability at 10 µM: 84%
Colon cancer organoid [4]
  viability at 10 µM: 127%
Colon cancer organoid [5]
  viability at 10 µM: 88.2%

## Cn1c(=O)[nH]c2cc(N3C(=O)c4cccc5c(CCCO)ccc(c45)C3=O)ccc21
Colon cancer organoid [1]
  viability at 10 µM: 52.8%
Colon cancer organoid [2]
  viability at 10 µM: 92.6%
Colon cancer organoid [3]
  viability at 10 µM: 42.4%
Colon cancer organoid [4]
  viability at 10 µM: 132%
Colon cancer organoid [5]
  viability at 10 µM: 69.9%

## CCCCNNC(=O)c1ccc(Br)cc1
Colon cancer organoid [1]
  viability at 10 µM: 53.8%
Colon cancer organoid [2]
  viability at 10 µM: 85.9%
Colon cancer organoid [3]
  viability at 10 µM: 44.9%
Colon cancer organoid [4]
  viability at 10 µM: 151%
Colon cancer organoid [5]
  viability at 10 µM: 75%

## CC1(C)C(N)=Nc2cc(OCCCN3Cc4ccc(OCCc5cn(CC(=O)N6CCC(CCN7CCCC7)CC6)nn5)cc4C3)c(OCC3CC3)cc21
Colon cancer organoid [1]
  viability at 10 µM: 9.03%
Colon cancer organoid [2]
  viability at 10 µM: 111%
Colon cancer organoid [3]
  viability at 10 µM: 68.9%
Colon cancer organoid [4]
  viability at 10 µM: 11.8%
Colon cancer organoid [5]
  viability at 10 µM: 7.1%

## CC1(C)C(N)=Nc2cc(OCCCCN3Cc4ccc(OCc5cn(CC(=O)N6CCC(CCN7CCCC7)CC6)nn5)cc4C3)c(OCC3CC3)cc21
Colon cancer organoid [1]
  viability at 10 µM: 44%
Colon cancer organoid [2]
  viability at 10 µM: 107%
Colon cancer organoid [3]
  viability at 10 µM: 45.4%
Colon cancer organoid [4]
  viability at 10 µM: 86.3%
Colon cancer organoid [5]
  viability at 10 µM: 78.3%

## CN(C)CCCOc1ccc(-c2cc(NCCCn3cccn3)nc(S(C)(=O)=O)n2)cc1
Colon cancer organoid [1]
  viability at 10 µM: 1.76%
Colon cancer organoid [2]
  viability at 10 µM: 100%
Colon cancer organoid [3]
  viability at 10 µM: 65.9%
Colon cancer organoid [4]
  viability at 10 µM: 0.601%
Colon cancer organoid [5]
  viability at 10 µM: 1.65%

## COc1cc(N(C)c2ccnc3ccc(C(F)(F)F)cc23)cc(OC)c1OC
Colon cancer organoid [1]
  viability at 10 µM: 69.7%
Colon cancer organoid [2]
  viability at 10 µM: 109%
Colon cancer organoid [3]
  viability at 10 µM: 50.1%
Colon cancer organoid [4]
  viability at 10 µM: 135%
Colon cancer organoid [5]
  viability at 10 µM: 64.7%

## CC(C)(O)[C@H](F)CN1Cc2cc(NC(=O)c3cnn4cccnc34)c(N3CCOCC3)cc2C1=O
Colon cancer organoid [1]
  viability at 10 µM: 38.7%
Colon cancer organoid [2]
  viability at 10 µM: 129%
Colon cancer organoid [3]
  viability at 10 µM: 23.3%
Colon cancer organoid [4]
  viability at 10 µM: 85.8%
Colon cancer organoid [5]
  viability at 10 µM: 51.5%

## CNCCN1CCC(c2cc(CN(C)C(=O)c3cccc(Oc4ccccc4)c3)ccn2)CC1
Colon cancer organoid [1]
  viability at 10 µM: 71.9%
Colon cancer organoid [2]
  viability at 10 µM: 80.6%
Colon cancer organoid [3]
  viability at 10 µM: 40.3%
Colon cancer organoid [4]
  viability at 10 µM: 118%
Colon cancer organoid [5]
  viability at 10 µM: 84.5%

## COc1ccccc1-c1cc(N2CCN(C(=O)OC(C)(C)C)CC2)c(N)nn1
Colon cancer organoid [1]
  viability at 10 µM: 37.8%
Colon cancer organoid [2]
  viability at 10 µM: 101%
Colon cancer organoid [3]
  viability at 10 µM: 53.4%
Colon cancer organoid [4]
  viability at 10 µM: 49.4%
Colon cancer organoid [5]
  viability at 10 µM: 35.8%

## CN(C(=O)c1cnn2cccnc12)c1cc2c(cc1N1CCOCC1)C(=O)N(C[C@@H](F)C(C)(C)O)C2
Colon cancer organoid [1]
  viability at 10 µM: 39.2%
Colon cancer organoid [2]
  viability at 10 µM: 139%
Colon cancer organoid [3]
  viability at 10 µM: 38.6%
Colon cancer organoid [4]
  viability at 10 µM: 92.3%
Colon cancer organoid [5]
  viability at 10 µM: 61.8%

## c1ccc(C2CCN(c3cnc4c(N5CCOCC5)nccn34)CC2)cc1
Colon cancer organoid [1]
  viability at 10 µM: 136%
Colon cancer organoid [2]
  viability at 10 µM: 81.3%
Colon cancer organoid [3]
  viability at 10 µM: 78.2%
Colon cancer organoid [4]
  viability at 10 µM: 207%
Colon cancer organoid [5]
  viability at 10 µM: 108%

## Cc1cc(C)cc([C@@H]2c3cc(C)ccc3NC(=O)CN2C(=O)c2ccc(Br)s2)c1
Colon cancer organoid [1]
  viability at 10 µM: 76%
Colon cancer organoid [2]
  viability at 10 µM: 85.7%
Colon cancer organoid [3]
  viability at 10 µM: 78.3%
Colon cancer organoid [4]
  viability at 10 µM: 110%
Colon cancer organoid [5]
  viability at 10 µM: 82.1%

## Cc1cc(C)cc([C@H]2c3cc(C)ccc3NC(=O)CN2C(=O)c2ccc(Br)s2)c1
Colon cancer organoid [1]
  viability at 10 µM: 63.4%
Colon cancer organoid [2]
  viability at 10 µM: 96.4%
Colon cancer organoid [3]
  viability at 10 µM: 63.7%
Colon cancer organoid [4]
  viability at 10 µM: 84.3%
Colon cancer organoid [5]
  viability at 10 µM: 86.1%

## CC1=C(C)C(=O)C(C(C)(C)CC(=O)N(CCCCSC[C@H]2O[C@@H](n3cnc4c(N)ncnc43)[C@@H]3OC(C)(C)O[C@@H]32)Cc2cccc(-c3ccc(Cl)cc3)c2)=C(C)C1=O
Colon cancer organoid [1]
  viability at 10 µM: 7.29%
Colon cancer organoid [2]
  viability at 10 µM: 121%
Colon cancer organoid [3]
  viability at 10 µM: 66.1%
Colon cancer organoid [4]
  viability at 10 µM: 8.34%
Colon cancer organoid [5]
  viability at 10 µM: 9.16%

## COCCN1CCC(c2cc(CN(C)C(=O)c3cccc(Oc4ccccc4)c3)ccn2)CC1
Colon cancer organoid [1]
  viability at 10 µM: 27.5%
Colon cancer organoid [2]
  viability at 10 µM: 67.2%
Colon cancer organoid [3]
  viability at 10 µM: 65.6%
Colon cancer organoid [4]
  viability at 10 µM: 46.6%
Colon cancer organoid [5]
  viability at 10 µM: 34%

## CC(=O)c1cc(-c2ccccc2OCC2CC2)c2ncccn12
Colon cancer organoid [1]
  viability at 10 µM: 76.3%
Colon cancer organoid [2]
  viability at 10 µM: 80.2%
Colon cancer organoid [3]
  viability at 10 µM: 73.2%
Colon cancer organoid [4]
  viability at 10 µM: 142%
Colon cancer organoid [5]
  viability at 10 µM: 102%

## CN(C)C(=O)N1CC[C@H](NC2=Nc3cc(F)ccc3N(CC(F)F)c3ccc(Cl)cc32)C1
Colon cancer organoid [1]
  viability at 10 µM: 43.7%
Colon cancer organoid [2]
  viability at 10 µM: 87.4%
Colon cancer organoid [3]
  viability at 10 µM: 61.6%
Colon cancer organoid [4]
  viability at 10 µM: 102%
Colon cancer organoid [5]
  viability at 10 µM: 75.2%

## CC1=C(C)C(=O)C(C(C)(C)CC(=O)N(CCCCSC[C@H]2O[C@@H](n3cnc4c(N)ncnc43)[C@H](O)[C@@H]2O)Cc2cccc(-c3ccc(Cl)cc3)c2)=C(C)C1=O
Colon cancer organoid [1]
  viability at 10 µM: 57.2%
Colon cancer organoid [2]
  viability at 10 µM: 89.1%
Colon cancer organoid [3]
  viability at 10 µM: 59.5%
Colon cancer organoid [4]
  viability at 10 µM: 92.3%
Colon cancer organoid [5]
  viability at 10 µM: 69.9%

## CC(C)Oc1ccc(-c2c[nH]cc2CN(C)CCO)cc1
Colon cancer organoid [1]
  viability at 10 µM: 90.2%
Colon cancer organoid [2]
  viability at 10 µM: 72%
Colon cancer organoid [3]
  viability at 10 µM: 58.5%
Colon cancer organoid [4]
  viability at 10 µM: 129%
Colon cancer organoid [5]
  viability at 10 µM: 80.1%

## CCOc1ccc(S(=O)(=O)Nc2ccc(Cl)cc2C#Cc2cnc(C(=O)O)cc2OC)c2ncccc12
Colon cancer organoid [1]
  viability at 10 µM: 46.2%
Colon cancer organoid [2]
  viability at 10 µM: 102%
Colon cancer organoid [3]
  viability at 10 µM: 42.8%
Colon cancer organoid [4]
  viability at 10 µM: 95.3%
Colon cancer organoid [5]
  viability at 10 µM: 77.6%

## Cc1cc(CN)cc(C)c1-c1ncn(C)c1-c1ccnc2cc(F)ccc12
Colon cancer organoid [1]
  viability at 10 µM: 53.8%
Colon cancer organoid [2]
  viability at 10 µM: 90.5%
Colon cancer organoid [3]
  viability at 10 µM: 63.2%
Colon cancer organoid [4]
  viability at 10 µM: 122%
Colon cancer organoid [5]
  viability at 10 µM: 86.8%

## CC1=CC(C)=[N+]2C1=C(CCCCc1cn(CC(=O)N3CCc4nc(NC(=O)[C@H]5CCN(C#N)C5)sc4C3)nn1)c1c(C)cc(C)n1[B-]2(F)F
Colon cancer organoid [1]
  viability at 10 µM: 36.4%
Colon cancer organoid [2]
  viability at 10 µM: 115%
Colon cancer organoid [3]
  viability at 10 µM: 31.6%
Colon cancer organoid [4]
  viability at 10 µM: 101%
Colon cancer organoid [5]
  viability at 10 µM: 52.6%

## COc1cc(OC)cc(-c2noc(N3CCN(C)C4(CCN(c5ccccc5)CC4)C3)n2)c1
Colon cancer organoid [1]
  viability at 10 µM: 65.9%
Colon cancer organoid [2]
  viability at 10 µM: 114%
Colon cancer organoid [3]
  viability at 10 µM: 46.8%
Colon cancer organoid [4]
  viability at 10 µM: 104%
Colon cancer organoid [5]
  viability at 10 µM: 81.3%

## N#CN1CC[C@H](C(=O)Nc2nc3c(s2)CN(C(=O)CN=[N+]=[N-])CC3)C1 [8RK64]
Colon cancer organoid [1]
  viability at 10 µM: 43.1%
Colon cancer organoid [2]
  viability at 10 µM: 105%
Colon cancer organoid [3]
  viability at 10 µM: 33.4%
Colon cancer organoid [4]
  viability at 10 µM: 108%
Colon cancer organoid [5]
  viability at 10 µM: 40.9%

## CN(C)[C@@H]1CCN(c2cc(-c3ccccc3)nc3ccnn23)C1 [(R)-ZINC-3573]
Colon cancer organoid [1]
  viability at 10 µM: 61.7%
Colon cancer organoid [2]
  viability at 10 µM: 68.2%
Colon cancer organoid [3]
  viability at 10 µM: 30.9%
Colon cancer organoid [4]
  viability at 10 µM: 130%
Colon cancer organoid [5]
  viability at 10 µM: 70.6%
